# From patent US11517572B2, “Killing senescent cells and treating senescence-associated conditions using a SRC inhibitor and a flavonoid” (Mayo Foundation for Medical Education and Research, priority 2014, dated 2022)
# Assays:
# HUVEC cells = test: Viability (ATPLITE) of senescent and proliferating HUVEC endothelial cells; type: cell-based, human; conditions: enzastaurin in combination with dasatinib, FIG. 4E, 48 hours
# Method: Human umbilical endothelial cells (HUVEC) (Lonza Group, Basel, Switzerland) were induced to senescence by exposure to 10 Gy radiation. Twenty days after irradiation, markers of cellular senescence (SA-β Gal) and growth arrest, determined by incorporation of BR dU, were evident. Non-senescent HUVEC cells used as control were plated at low density in culture media so that the cells were proliferating when exposed to the test drug. Senescent HUVEC cells and non-senescent, proliferating HUVEC cells were treated for 48 hours with quercetin, dasatinib, and enzastaurin as follows: (1) quercetin alone at 3.75, 7.5 and 15μ,M; (2) dasatinib alone at 25, 50, 100, and 200 nM; (3) enzastaurin alone at concentrations of 0.25 0.5 1 and 2 μM; (4) dasatinib at 100 nM plus quercetin at 7.5 μM; (5) with dasatinib at 50 nM plus quercetin at 7.5 μM; (6) dasatinib at 100 nM plus enzastaurin at 1.0 μM; (7) dasatinib at 100 nM plus enzastaurin at 0.5 μM; (8) dasatinib at 50 nM plus enzastaurin at 1.0 μM; (9) dasatinib at 50 nM plus enzastaurin at 0.5 μM; (10) quercetin at 15 μM and enzastaurin at 1.0 μM; (11) quercetin at 15 μM and enzastaurin at 1.0 μM; and (12) quercetin at 7.5 μM and enzastaurin at 1.0 μM. The number of viable cells was determined by ATPLITE (Perkin-Elmer, Waltham, Mass.). The data are presented in FIGS. 4A-4F as mean viability (ATP (μM))+SEM of 4.
# IMR90 cells = test: Killing of radiation-induced senescent vs proliferating IMR90 fibroblasts; type: cell-based, human; conditions: enzastaurin at 0.25 0.5 and 2 μM
# Description: Senescence of human primary lung fibroblasts (IMR90) (IMR-90 (ATCC® CCL-186TH, Mannassas, Va.) was induced by irradiation. IMR90 cells in culture were subjected to 10 Gy radiation (Day-7). Four days after irradiation (Day-3), the culture media was changed. Three days after the media change (Day 0), the cells were exposed to media containing quercetin. Non-irradiated IMR90 cells were included as controls. Non-irradiated and irradiated IMR90 cells were exposed to quercetin at concentrations of 5, 10, 15, and 45 μM. Percent survival was determined four days after exposure to the drugs (Day 4). The number of viable cells was determined by using ATPLITE (Perkin-Elmer, Waltham, Mass.).
# In a separate experiment, IMR90 cells were irradiated as described above to induce senescence. Approximately 20 days after irradiation, the senescent cells and proliferating IMR90 cells were exposed to enzastaurin at concentrations of 0.25 0.5 and 2 μM.
# [1] = Glucose tolerance test and hemoglobin A1c in high fat fed p16-3MR mice; type: in vivo; conditions: high fat diet, 3 rounds of 25 mg/kg daily for five days
# Method: Groups of p16-3MR mice (n=9) were fed a high fat diet for four months mice or a regular chow diet. Animals were then treated with ganciclovir (3 rounds of 25 mg/kg ganciclovir administered daily for five consecutive days) or vehicle. A glucose bolus was given at time zero, and blood glucose was monitored at 20, 30, 60, and 120 minutes after delivering glucose to determine glucose disposal (see FIG. 18A). This was also quantified as “area under the curve” (AUC) (see FIGS. 18B and 18C), with a higher AUC value indicating glucose intolerance.
# [2] = Weight, body composition and food intake monitoring; type: in vivo; conditions: p16-3MR mice, high fat diet
# Description: Changes in weight, body composition, and food intake were also monitored.
# [3] = Insulin Tolerance Testing (ITT); type: in vivo, mice
# Method: Insulin sensitivity was also determined (Insulin Tolerance Testing (ITT)).
# [4] = Glucose tolerance testing in DIO INK-ATTAC,p16-3MR mice; type: in vivo; conditions: compared to vehicle-treated DIO mice
# Method: Three-month old INK-ATTAC,p16-3MR mice were fed a high fat diet for 4 months. The animals were then treated with ganciclovir or vehicle. DIO mice were treated with ganciclovir on September 1 (see FIG. 21).
# Senescent cells = test: SA-β-Gal senescent cells in adipose tissue of high fat fed p16-3MR mice; type: in vivo; conditions: high fat diet four months, 25 mg/kg daily for five consecutive days, p=<0.004
# Method: Groups of p16-3MR mice (n=6) were fed a high fat diet (60% fat) for four months mice or a regular chow diet. The presence of senescence cells was determined by measuring luminescence (i.e., p16 positive cells). […] Animals were then treated with ganciclovir or vehicle to determine if removal of senescent cells reduced the presence of senescent cells in adipose tissue. Groups of animals were treated with ganciclovir (GCV) or vehicle. Ganciclovir (25 mg/kg) was administered daily for five consecutive days. The presence of senescent cells in perirenal, epididymal, or subcutaneous inguinal adipose tissue was detected by SA-β-Gal staining Data were analyzed by ANOVA.
SMILES,potentiating effect of dasatinib (HUVEC cells),killing of proliferating IMR90 cells (IMR90 cells),selective killing of senescent IMR90 cells (IMR90 cells; approximately 20 days after 10 Gy irradiation),Hemoglobin A1c [1],glucose tolerance test AUC ([1]; vs vehicle-treated),body composition (percent of fat) [2],body weight [2],food intake (grams per week) [2],"decrease in blood glucose in insulin tolerance testing ([3]; p16-3MR mice fed a high fat diet, 0, 14, 30, 60, and 120 minutes)",change in insulin tolerance testing ([3]; wild-type mice),glucose tolerance (areas under the curve in glucose tolerance tests) [4],presence of senescent cells in epididymal fat (SA-β-Gal) (Senescent cells)
"Cn1cc(C2=C(c3cn(C4CCN(Cc5ccccn5)CC4)c4ccccc34)C(=O)NC2=O)c2ccccc21 [Enzastaurin, 3-(1-Methylindol-3-yl)-4-[1-[1-(pyridin-2-ylmethyl)piperidin-4-yl]indol-3-yl]pyrrole-2,5-dione]",slight potentiating effect,did not kill the proliferating cells,did not selectively kill the senescent cells,,,,,,,,,
Nc1nc(O)c2ncn(COC(CO)CO)c2n1 [ganciclovir],,,,lower,significantly lower,did not alter,did not alter,did not alter,greater decrease in blood glucose,not observed,sustained and improved glucose tolerance,significant reduction
